Experimental data as given in paper PMC5218480 (PLoS ONE, 2017).

Tested on: MV-4-11 cells
Experiment: Gene expression microarray analysis (Affymetrix PrimeView) and GSEA
Format: cell-based, human
Design: RFU PODN (11730768_x_at) / Fold change /veh PODN (11730768_x_at) / RFU LINC00158 (11744669_a_at) / Fold change /veh LINC00158 (11744669_a_at) / RFU DUSP10 (11751237_a_at) / Fold change /veh DUSP10 (11751237_a_at) / RFU ID3 (11757404_x_at) / Fold change /veh ID3 (11757404_x_at) / RFU PLEKHG5 (11737974_s_at) / Fold change /veh PLEKHG5 (11737974_s_at) / RFU LRRC4B (11730491_at) / Fold change /veh LRRC4B (11730491_at) / RFU GIMAP4 (11747438_a_at) / Fold change /veh GIMAP4 (11747438_a_at) / RFU KRT8 (11758183_x_at) / Fold change /veh KRT8 (11758183_x_at) / RFU CNN1 (11734310_a_at) / Fold change /veh CNN1 (11734310_a_at) / RFU VPS37D (11726825_at) / Fold change /veh VPS37D (11726825_at) / RFU C10orf10 (11716522_x_at) / Fold change /veh C10orf10 (11716522_x_at) / RFU KIR2DL2 /// KIR2DL4 /// KIR2DL5A /// KIR2DL5B /// KIR2DS1 /// KIR2DS2 /// KIR2DS3 /// KIR2DS4 /// KIR3DL3 /// KIR3DL3 /// KIR3DS1 (11738374_at) / Fold change /veh KIR2DL2 /// KIR2DL4 /// KIR2DL5A /// KIR2DL5B /// KIR2DS1 /// KIR2DS2 /// KIR2DS3 /// KIR2DS4 /// KIR3DL3 /// KIR3DL3 /// KIR3DS1 (11738374_at) / RFU C1QL1 (11718748_at) / Fold change /veh C1QL1 (11718748_at) / RFU TMPRSS4 (11747572_a_at) / Fold change /veh TMPRSS4 (11747572_a_at) / RFU HAMP (11756126_x_at) / Fold change /veh HAMP (11756126_x_at) / RFU RNFT2 (11725882_a_at) / Fold change /veh RNFT2 (11725882_a_at) / RFU NR4A2 (11747474_a_at) / Fold change /veh NR4A2 (11747474_a_at) / RFU ABCC12 (11746883_a_at) / Fold change /veh ABCC12 (11746883_a_at) / RFU TMEM136 (11760407_x_at) / Fold change /veh TMEM136 (11760407_x_at) / RFU CLDN22 /// WWC2 (11732394_at) / Fold change /veh CLDN22 /// WWC2 (11732394_at) / RFU HLA-DPB1 (11760878_x_at) / Fold change /veh HLA-DPB1 (11760878_x_at) / RFU SPINT1 (11716480_a_at) / Fold change /veh SPINT1 (11716480_a_at) / RFU GAP43 (11754022_s_at) / Fold change /veh GAP43 (11754022_s_at) / RFU A4GNT (11735810_at) / Fold change /veh A4GNT (11735810_at) / RFU PRB3 (11715151_x_at) / Fold change /veh PRB3 (11715151_x_at) / RFU TUBB4B (11761932_at) / Fold change /veh TUBB4B (11761932_at) / RFU CAPN14 (11732068_a_at) / Fold change /veh CAPN14 (11732068_a_at) / RFU TMCC2 (11721928_a_at) / Fold change /veh TMCC2 (11721928_a_at) / RFU IRGQ (11745062_a_at) / Fold change /veh IRGQ (11745062_a_at) / RFU FAM174B (11720279_a_at) / Fold change /veh FAM174B (11720279_a_at) / RFU TMPRSS4 (11748680_a_at) / Fold change /veh TMPRSS4 (11748680_a_at) / RFU FAM212B (11763350_a_at) / Fold change /veh FAM212B (11763350_a_at) / RFU PLEKHG5 (11743358_a_at) / Fold change /veh PLEKHG5 (11743358_a_at) / RFU ZSCAN30 (11745921_a_at) / Fold change /veh ZSCAN30 (11745921_a_at) / RFU CMKLR1 (11741424_a_at) / Fold change /veh CMKLR1 (11741424_a_at) / RFU LOC101060620 /// MAPK8IP1 (11723275_at) / Fold change /veh LOC101060620 /// MAPK8IP1 (11723275_at) / RFU SPTSSB (11747773_x_at) / Fold change /veh SPTSSB (11747773_x_at) / RFU PRSS12 (11739890_at) / Fold change /veh PRSS12 (11739890_at) / RFU BIN1 (11741810_x_at) / Fold change /veh BIN1 (11741810_x_at) / RFU WNT11 (11732464_a_at) / Fold change /veh WNT11 (11732464_a_at) / RFU C10orf10 (11716521_a_at) / Fold change /veh C10orf10 (11716521_a_at) / RFU C5orf56 (11738089_at) / Fold change /veh C5orf56 (11738089_at) / RFU CYB561 (11721691_x_at) / Fold change /veh CYB561 (11721691_x_at) / RFU ANKRD19P (11752326_a_at) / Fold change /veh ANKRD19P (11752326_a_at) / RFU OR2T12 /// OR2T33 /// OR2T8 (11738714_s_at) / Fold change /veh OR2T12 /// OR2T33 /// OR2T8 (11738714_s_at) / RFU VCAN (11748164_a_at) / Fold change /veh VCAN (11748164_a_at) / RFU JSRP1 (11732532_at) / Fold change /veh JSRP1 (11732532_at) / RFU KRTAP10-11 (11738290_x_at) / Fold change /veh KRTAP10-11 (11738290_x_at) / RFU MYO3A (11730013_a_at) / Fold change /veh MYO3A (11730013_a_at) / RFU EBF3 (11725865_a_at) / Fold change /veh EBF3 (11725865_a_at) / RFU CAMK2N1 (11719241_x_at) / Fold change /veh CAMK2N1 (11719241_x_at) / RFU C5orf56 (11738088_a_at) / Fold change /veh C5orf56 (11738088_a_at) / RFU OLFML3 (11715873_a_at) / Fold change /veh OLFML3 (11715873_a_at) / RFU LOC100653217 /// NTM (11731650_a_at) / Fold change /veh LOC100653217 /// NTM (11731650_a_at) / RFU MAPK11 (11762145_a_at) / Fold change /veh MAPK11 (11762145_a_at) / RFU FIZ1 (11724087_x_at) / Fold change /veh FIZ1 (11724087_x_at) / RFU OASL (11726364_x_at) / Fold change /veh OASL (11726364_x_at) / RFU SOX15 (11748057_x_at) / Fold change /veh SOX15 (11748057_x_at) / RFU CD79A (11719716_a_at) / Fold change /veh CD79A (11719716_a_at) / RFU HIST1H1D (11736915_at) / Fold change /veh HIST1H1D (11736915_at) / RFU CASKIN2 (11723855_a_at) / Fold change /veh CASKIN2 (11723855_a_at) / RFU LOC730098 (11760151_x_at) / Fold change /veh LOC730098 (11760151_x_at) / RFU OR4N2 (11742367_at) / Fold change /veh OR4N2 (11742367_at) / RFU PRRT2 (11749266_a_at) / Fold change /veh PRRT2 (11749266_a_at) / RFU SNX32 (11753110_a_at) / Fold change /veh SNX32 (11753110_a_at) / RFU CDHR5 (11726645_a_at) / Fold change /veh CDHR5 (11726645_a_at) / RFU RCAN1 (11760418_a_at) / Fold change /veh RCAN1 (11760418_a_at) / RFU FAM167A (11723789_a_at) / Fold change /veh FAM167A (11723789_a_at) / RFU FAM26E (11764081_at) / Fold change /veh FAM26E (11764081_at) / RFU ISYNA1 (11749810_s_at) / Fold change /veh ISYNA1 (11749810_s_at) / RFU ACY1 (11761880_at) / Fold change /veh ACY1 (11761880_at) / RFU 11764098_at / Fold change /veh 11764098_at / RFU SAMD14 (11745864_x_at) / Fold change /veh SAMD14 (11745864_x_at) / RFU NPB (11741838_a_at) / Fold change /veh NPB (11741838_a_at) / RFU TMPRSS6 (11731388_a_at) / Fold change /veh TMPRSS6 (11731388_a_at) / RFU KRTAP10-2 (11738614_at) / Fold change /veh KRTAP10-2 (11738614_at) / RFU ARHGAP8 /// PRR5-ARHGAP8 (11727945_x_at) / Fold change /veh ARHGAP8 /// PRR5-ARHGAP8 (11727945_x_at) / RFU KRTAP5-7 /// NADSYN1 (11734609_at) / Fold change /veh KRTAP5-7 /// NADSYN1 (11734609_at) / RFU RASL12 (11751679_a_at) / Fold change /veh RASL12 (11751679_a_at) / RFU CDKN2B (11736163_a_at) / Fold change /veh CDKN2B (11736163_a_at) / RFU PRF1 (11729649_at) / Fold change /veh PRF1 (11729649_at) / RFU, ZNF638 /// ZNF638-IT1 / Fold change vs veh, ZNF638 /// ZNF638-IT1 / RFU, PANK3 / Fold change vs veh, PANK3 / RFU, SH3YL1 / Fold change vs veh, SH3YL1 / RFU, ZEB2 / Fold change vs veh, ZEB2 / RFU, NRIP1 / Fold change vs veh, NRIP1 / RFU, PTTG1IP / Fold change vs veh, PTTG1IP / RFU, CAPN2 / Fold change vs veh, CAPN2 / RFU, MED14 / Fold change vs veh, MED14 / RFU, SNORA58 / Fold change vs veh, SNORA58 / RFU, C1orf63 / Fold change vs veh, C1orf63 / RFU, LRRFIP1 / Fold change vs veh, LRRFIP1 / RFU, NDUFAF7 / Fold change vs veh, NDUFAF7 / RFU, SLC12A2 / Fold change vs veh, SLC12A2 / RFU, IBTK / Fold change vs veh, IBTK / RFU, ESF1 / Fold change vs veh, ESF1 / Fold change vs veh, TMEM50B / RFU, TAOK1 / Fold change vs veh, TAOK1 / RFU, ACBD3 / Fold change vs veh, ACBD3 / RFU, TMA16 / Fold change vs veh, TMA16 / RFU, RWDD3 / Fold change vs veh, RWDD3 / RFU, BCAT1 / Fold change vs veh, BCAT1 / RFU, EDEM3 / Fold change vs veh, EDEM3 / RFU, TMEM33 / Fold change vs veh, TMEM33 / RFU, WDR75 / Fold change vs veh, WDR75 / RFU, AHCTF1 / Fold change vs veh, AHCTF1 / RFU, TFRC / Fold change vs veh, TFRC / RFU, ZDHHC17 / Fold change vs veh, ZDHHC17 / RFU, NOM1 / Fold change vs veh, NOM1 / RFU, ARL8B / Fold change vs veh, ARL8B / RFU, ZBTB11 / Fold change vs veh, ZBTB11 / RFU, TAMM41 / Fold change vs veh, TAMM41 / RFU, KIAA1704 /// LOC100996395 / Fold change vs veh, KIAA1704 /// LOC100996395 / RFU, ING1 / Fold change vs veh, ING1 / RFU, TRMT61B / Fold change vs veh, TRMT61B / RFU, FUBP3 / Fold change vs veh, FUBP3 / RFU, TP53 / Fold change vs veh, TP53 / RFU, TNKS2 / Fold change vs veh, TNKS2 / RFU, ZFP14 / Fold change vs veh, ZFP14 / RFU, ACTR2 / Fold change vs veh, ACTR2 / RFU, PPP3R1 / Fold change vs veh, PPP3R1 / RFU, PIK3R1 / Fold change vs veh, PIK3R1 / RFU, HNRNPA1 / Fold change vs veh, HNRNPA1 / RFU, RNF170 / Fold change vs veh, RNF170 / RFU, ZNF28 / Fold change vs veh, ZNF28 / RFU, RNGTT / Fold change vs veh, RNGTT / RFU, OGT / Fold change vs veh, OGT / RFU, BRD1 / Fold change vs veh, BRD1 / RFU, MARS / Fold change vs veh, MARS / RFU, ZNF655 / Fold change vs veh, ZNF655 / RFU, FAHD1 / Fold change vs veh, FAHD1 / RFU, BDP1 / Fold change vs veh, BDP1 / RFU, LRRCC1 / Fold change vs veh, LRRCC1 / RFU, ARID1A / Fold change vs veh, ARID1A / RFU, ZNF146 / Fold change vs veh, ZNF146 / RFU, ZNF330 / Fold change vs veh, ZNF330 / RFU, GPN3 / Fold change vs veh, GPN3 / RFU, C9orf123 / Fold change vs veh, C9orf123 / RFU, N4BP2L2 / Fold change vs veh, N4BP2L2 / RFU, ARFIP1 / Fold change vs veh, ARFIP1 / RFU, FAM179B / Fold change vs veh, FAM179B / RFU, BCL10 / Fold change vs veh, BCL10 / RFU, UHRF1BP1L / Fold change vs veh, UHRF1BP1L / RFU, BET1 / Fold change vs veh, BET1 / RFU, CNOT2 / Fold change vs veh, CNOT2 / RFU, ZNF268 / Fold change vs veh, ZNF268 / Fold change vs veh, ZNF507 / RFU, DGCR2 / Fold change vs veh, DGCR2 / RFU, WDSUB1 / Fold change vs veh, WDSUB1 / Fold change vs veh, HSP90B1 /// MIR3652 / RFU, ADSS / Fold change vs veh, ADSS / RFU, GK / Fold change vs veh, GK / RFU, ZNF148 / Fold change vs veh, ZNF148 / RFU, TAF9 / Fold change vs veh, TAF9 / RFU, SLC1A5 / Fold change vs veh, SLC1A5 / RFU, SLMO2 / Fold change vs veh, SLMO2 / RFU, ABCC4 / Fold change vs veh, ABCC4 / RFU, LOC101060439 /// RAP1B / Fold change vs veh, LOC101060439 /// RAP1B / RFU, RFX7 / Fold change vs veh, RFX7 / RFU, GTPBP10 / Fold change vs veh, GTPBP10 / RFU, CNEP1R1 / Fold change vs veh, CNEP1R1 / RFU, BIVM-ERCC5 /// ERCC5 / Fold change vs veh, BIVM-ERCC5 /// ERCC5 / RFU, ILF3 / Fold change vs veh, ILF3 / RFU 11762660_at / Fold change /veh 11762660_at / RFU VCAN (11757783_s_at) / Fold change /veh VCAN (11757783_s_at) / RFU DDX43 (11728927_at) / Fold change /veh DDX43 (11728927_at) / RFU KRT8 (11758188_x_at) / Fold change /veh KRT8 (11758188_x_at) / RFU NKD1 (11759106_at) / Fold change /veh NKD1 (11759106_at) / RFU SRD5A1 (11742802_a_at) / Fold change /veh SRD5A1 (11742802_a_at) / RFU TPSAB1 /// TPSB2 (11721975_s_at) / Fold change /veh TPSAB1 /// TPSB2 (11721975_s_at) / RFU GSTM3 (11746129_a_at) / Fold change /veh GSTM3 (11746129_a_at) / RFU IL23R (11737362_x_at) / Fold change /veh IL23R (11737362_x_at) / RFU TMEM51 (11727254_a_at) / Fold change /veh TMEM51 (11727254_a_at) / RFU PIWIL2 (11732686_x_at) / Fold change /veh PIWIL2 (11732686_x_at) / RFU ORM1 (11744905_x_at) / Fold change /veh ORM1 (11744905_x_at) / RFU CCDC152 (11743942_at) / Fold change /veh CCDC152 (11743942_at) / RFU ECM1 (11717891_a_at) / Fold change /veh ECM1 (11717891_a_at) / RFU IL23R (11748794_a_at) / Fold change /veh IL23R (11748794_a_at) / RFU TNFAIP8L3 (11732012_x_at) / Fold change /veh TNFAIP8L3 (11732012_x_at) / RFU MBOAT4 (11741988_at) / Fold change /veh MBOAT4 (11741988_at) / RFU 11764193_at / Fold change /veh 11764193_at / RFU TMEM53 (11763286_at) / Fold change /veh TMEM53 (11763286_at) / RFU MAGEB2 (11727129_at) / Fold change /veh MAGEB2 (11727129_at) / RFU TMEM200A (11744735_a_at) / Fold change /veh TMEM200A (11744735_a_at) / RFU CCDC152 (11751479_a_at) / Fold change /veh CCDC152 (11751479_a_at) / RFU FAM211A (11726209_a_at) / Fold change /veh FAM211A (11726209_a_at) / RFU RGS16 (11746705_a_at) / Fold change /veh RGS16 (11746705_a_at) / RFU VCAN (11755009_s_at) / Fold change /veh VCAN (11755009_s_at) / RFU RHOB (11743442_s_at) / Fold change /veh RHOB (11743442_s_at) / RFU RGS16 (11720943_a_at) / Fold change /veh RGS16 (11720943_a_at) / RFU RGS16 (11720944_at) / Fold change /veh RGS16 (11720944_at) / RFU, VPS4B / Fold change vs veh, VPS4B / RFU, CREB1 / Fold change vs veh, CREB1 / RFU, DNAJC13 / Fold change vs veh, DNAJC13 / RFU, GNAQ / Fold change vs veh, GNAQ / RFU, CDK5R1 / Fold change vs veh, CDK5R1 / RFU, ZRANB3 / Fold change vs veh, ZRANB3 / RFU, CUL4A / Fold change vs veh, CUL4A / RFU, CCNY / Fold change vs veh, CCNY / RFU, UFL1 / Fold change vs veh, UFL1 / RFU, COG3 / Fold change vs veh, COG3 / RFU, DIAPH2 / Fold change vs veh, DIAPH2 / RFU, SKA2 / Fold change vs veh, SKA2 / RFU, AFF3 / Fold change vs veh, AFF3 / RFU, LMF1 / Fold change vs veh, LMF1 / RFU, IPO11 / Fold change vs veh, IPO11 / RFU, DFFB / Fold change vs veh, DFFB / RFU, FOXP1 / Fold change vs veh, FOXP1 / RFU, CARD8 / Fold change vs veh, CARD8 / RFU, STRN3 / Fold change vs veh, STRN3 / RFU, ADK / Fold change vs veh, ADK / RFU, RASSF2 / Fold change vs veh, RASSF2 / RFU, WIPF1 / Fold change vs veh, WIPF1 / RFU, LARP1B / Fold change vs veh, LARP1B / RFU, RASA1 / Fold change vs veh, RASA1 / RFU, RB1 / Fold change vs veh, RB1 / RFU, PPFIA1 / Fold change vs veh, PPFIA1 / RFU, MAT2A / Fold change vs veh, MAT2A / RFU, CCT5 / Fold change vs veh, CCT5 / RFU, WDR92 / Fold change vs veh, WDR92 / RFU, CUX1 / Fold change vs veh, CUX1 / RFU, TTC7A / Fold change vs veh, TTC7A / RFU, TMEM135 / Fold change vs veh, TMEM135 / RFU, DEPTOR / Fold change vs veh, DEPTOR / RFU, CPM / Fold change vs veh, CPM / RFU, DNAJB6 / Fold change vs veh, DNAJB6 / RFU, CACNA2D3 / Fold change vs veh, CACNA2D3 / RFU, DTX4 / Fold change vs veh, DTX4 / RFU, TFCP2 / Fold change vs veh, TFCP2 / RFU, GMCL1 /// GMCL1P1 / Fold change vs veh, GMCL1 /// GMCL1P1 / RFU, AEBP2 / Fold change vs veh, AEBP2 / RFU, SNHG1 /// SNORD22 /// SNORD25 /// SNORD26 /// SNORD27 /// SNORD28 /// SNORD29 /// SNORD31 / Fold change vs veh, SNHG1 /// SNORD22 /// SNORD25 /// SNORD26 /// SNORD27 /// SNORD28 /// SNORD29 /// SNORD31 / Fold change (Aza/veh), C12orf56 (ProbeSet 11735607_a_at) / Fold change (ACY-1035/veh), C12orf56 (ProbeSet 11735607_a_at) / Fold change (Aza/veh), FGFR1OP (ProbeSet 11751329_s_at) / Fold change (ACY-1035/veh), FGFR1OP (ProbeSet 11751329_s_at) / Fold change (Aza/veh), VPS36 (ProbeSet 11739960_a_at) / Fold change (ACY-1035/veh), VPS36 (ProbeSet 11739960_a_at) / RFU SYPL1 (11715823_x_at) / Fold change /veh SYPL1 (11715823_x_at) / RFU IGFBP7 (11715501_s_at) / Fold change /veh IGFBP7 (11715501_s_at) / RFU REEP3 (11722064_at) / Fold change /veh REEP3 (11722064_at) / RFU IGLL1 (11728026_x_at) / Fold change /veh IGLL1 (11728026_x_at): dose or concentration left out as unconfirmed
Settings: ProbeSet 11743580_s_at; LIST B

Nc1ccc(-c2cccs2)cc1NC(=O)c1ccc2c(c1)cc(C1CC1)n2CCN1CCOCC1 [ACY-1035]
RFU, ACTR2: 854.57 RFU
